The text below walks through data of patent publication US20220023279A1, “COMPOSITIONS FOR TREATMENT OF SYMPHYSIOLYSIS” (priority 2018, published 2022).

Data set [1] concerns patient suffering from symphysiolysis. Briefly: Example 1: subcutaneous local anesthetic to the inguinal region, pregnant patient with symphysiolysis confined to a wheelchair. The format is in vivo, human. Particulars: each side of inguinal region. The protocol:
A patient weighing about 60 kilograms had previously suffered from a car accident with injury to their left leg, resulting in complex regional pain syndrome. Walking was impaired, and crutches were required for mobility. During pregnancy, they were diagnosed with symphysiolysis and they were confined to a wheelchair as they were unable to ambulate using crutches.
The treatment lasted for one hour. After one hour, additional Bupivacaine HCl was administered, 0.5% of an amount of 5 ml, diluted in 5 ml of saline solution to each side of the inguinal region.
Before and after the administration ultrasound to test fetal pulse was performed to confirm that there was a fetal pulse. The patient was directed to perform fetal monitoring on the day after the administration.

For data set [2] the test system is unchanged. Briefly: Example 3: subcutaneous lidocaine and bupivacaine to the inguinal region, person in 31st week of pregnancy with symphysiolysis. The format is in vivo, human. The source says:
A person, weighing about 60 kilograms, in their 20th week complained of groin pains which spread to their right leg. They had difficulty walking and appeared to be dragging their right leg. Upon examination, no sensitivity in symphysis pubis joint was evident. Sensitivity was noticeable at the right sacroiliac joint. Reducing physical activity was recommended by the physician.
(§1) After about six weeks, the patient returned with noticeable sensitivity at the left sacroiliac joint, and some sensitivity at the right sacroiliac joint. Painkillers and orthopedic stabilization of the hip were recommended. NSAIDs were prescribed to be used until the 31st week. The patient had symptoms of symphysiolysis in the 29th week which were relieved using NSAID therapy (diclofenac sodium).
During the 31st week, the patient felt an increase in symphysiolysis. […] The patient complained of temporary paralysis during walking, difficulty sleeping and difficulty sitting because of pain in the groin and back areas. Subcutaneous anesthesia to the inguinal region was recommended. A fetal ultrasound was performed, and fetal movement and pulse were both satisfactory.
The patient was injected, subcutaneously in the inguinal region with 1% lidocaine.
Two days post lidocaine treatment, the patient felt increased pain, and paresthesia in the legs. […] Twenty minutes after the lidocaine administration, the patient received bupivacaine, 0.5%, in an amount of 5 ml to both sides (not diluted with saline), via subcutaneous administration to the inguinal region. […] The patient reported fatigue.

For data set [3] the test system is unchanged. In words: Example 3: NSAID therapy of symphysiolysis symptoms in the 29th week of pregnancy. It is filed as in vivo, human.
Text: as §1

Data set [4] shares this test system. Conditions: 5 ml lidocaine HCl 1%, subcutaneous, both sides.
Text: They were recommended to perform orthopedic support, physical therapy and to medicate with oral paracetamol and dipyrone for pain management. Bedrest was recommended.
At 35 weeks they felt an increase in the severity of symphysiolysis. They used orthopedic support methods which were not sufficient to relieve the symptoms. They had considered inducing labor and using a walker to enhance mobility.

Structures can show the parent of a compound that is named as a salt.

In the case of `CCCCN1CCCCC1C(=O)Nc1c(C)cccc1C` (centres unmarked) [Bupivacaine HCl], in data set [1] (Bupivacaine HCl 0.5%, 5 ml diluted in 5 ml saline, given one hour after lidocaine HCl), the “additional duration of mobility” value is on record as “nine”.
Consider `CCCCN1CCCCC1C(=O)Nc1c(C)cccc1C` (centres unmarked) [Bupivacaine], for which the pain level result in data set [2] (five hours after lidocaine, bupivacaine 0.5%, 5 ml both sides, given twenty minutes after lidocaine) is “further improvement in pain level”. Besides, the “pain, walking and walking speed” value in data set [2] (three hours after lidocaine, bupivacaine 0.5%, 5 ml both sides undiluted, subcutaneous, given twenty minutes after lidocaine) is “significant improvement in walking, decrease in pain, and increase in walking speed”. Also, the “side effect reported by the patient” value in data set [2] (three hours after lidocaine, bupivacaine 0.5%, 5 ml both sides, given twenty minutes after lidocaine) is “fatigue”.
As for `O=C(O)Cc1ccccc1Nc1c(Cl)cccc1Cl` [diclofenac sodium], in data set [3], the “symptoms of symphysiolysis under NSAID therapy” value is listed as “relieved”.
Regarding `CCN(CC)CC(=O)Nc1c(C)cccc1C` [Lidocaine], the pain and walking entry in data set [2] (5 minutes after second treatment, 1 ml lidocaine 1% without saline, subcutaneous, both sides) was “improvement in walking, but pain still remained”; in data set [2] (six hours after first treatment, 1% lidocaine subcutaneous in inguinal region), “less of an influence of the anesthetic, but still felt that walking was better than before the treatment”; in data set [2] (ten minutes after second treatment, 1 ml lidocaine 1% without saline, subcutaneous, both sides), “able to walk without pain and did not feel back pain”; in data set [2] (three hours after first treatment, 1% lidocaine subcutaneous in inguinal region), “improvement in pain and in walking but still felt minor freezing of gait”. In addition, the back pains result in data set [2] (20 hours after first treatment, 1% lidocaine subcutaneous in inguinal region) is recorded as “back pains returned, but to a lesser extent than before the treatment”. Also, the sleeping entry in data set [2] (night after first treatment, 1% lidocaine subcutaneous in inguinal region) is reported as “greatly improved”.
For the compound `CCN(CC)CC(=O)Nc1c(C)cccc1C` [lidocaine HCl], in data set [1] (lidocaine HCl 1%, 5 ml diluted with 5 ml saline, subcutaneous), the “patient condition after administration (standing, pain, need of wheelchair)” value is “able to stand without pain and no longer required a wheelchair”. Also, the “side effects reported by the patient after the treatment” value in data set [4] is “slight dizziness and occasionally heat rate increases”. In data set [4] (after 30 minutes), the “ability to climb stairs” value is on record as “able climb stairs without significant pain”, the “pain in hip joint which had limited walking” value is reported as “significantly reduced”, the “relief of symphysiolysis symptoms” value is recorded as “significant relief” and the “sharp pain in the left groin area” value is “disappeared”.
